Data as given in the supplement of paper PMC10307832.

What was measured:
Assay in all cases: relative viability (nuclei count vs DMSO), 5 days (fraction); higher = more cells survive
[1] = tested on: NCI-H1993
Method in brief: (§1)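 Relative viability was taken as the ratio of nuclei in treated wells to nuclei in vehicle wells. Lung cancer cell lines in 1536-well plates received compounds by pin tool one day after seeding, either one drug alone or a fixed anchor-drug dose plus five library-drug doses (not always all listed) in √10 steps. Nuclei were counted on 4× images after 5 days of treatment, and values are medians of duplicate plates.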

[2] = tested on: LC-2-ad
Method in brief: as §1

[3] = tested on: SW 1573
Method in brief: as §1

[4] = tested on: NCI-H2126
Method in brief: as §1

[5] = tested on: HCC-15
Method in brief: as §1

[6] = tested on: HARA
Method in brief: as §1

[7] = tested on: NCI-H838
Method in brief: as §1

[8] = tested on: NCI-H2347
Method in brief: as §1

[9] = tested on: COR-L23
Method in brief: as §1

[10] = tested on: LU99A
Method in brief: as §1

[11] = tested on: NCI-H1651
Method in brief: as §1

[12] = tested on: UMC-11
Method in brief: as §1

Structure (SMILES): COc1cc(N2CCC(C(N)=O)CC2)ccc1Nc1nc(N)c(Cl)c(Nc2ccccc2S(=O)(=O)C(C)C)n1 [HG-5-88-01] + O=C(c1cc(Cc2n[nH]c(=O)c3ccccc23)ccc1F)N1CCN(C(=O)C2CC2)CC1 [Olaparib] (partner 8 µM)
- relative viability ([1]; first compound 0.04 µM): 1.12
- relative viability ([1]; first compound 0.1265 µM): 1.03
- relative viability ([1]; first compound 0.4 µM): 0.949
- relative viability ([1]; first compound 4 µM): 0.842
- relative viability ([2]; first compound 0.04 µM): 0.691
- relative viability ([2]; first compound 0.1265 µM): 0.692
- relative viability ([2]; first compound 0.4 µM): 0.725
- relative viability ([2]; first compound 1.265 µM): 0.692
- relative viability ([2]; first compound 4 µM): 0.721
- relative viability ([3]; first compound 0.04 µM): 0.562
- relative viability ([3]; first compound 0.1265 µM): 0.554
- relative viability ([3]; first compound 0.4 µM): 0.438
- relative viability ([3]; first compound 1.265 µM): 0.368
- relative viability ([3]; first compound 4 µM): 0.375
- relative viability ([4]; first compound 0.04 µM): 0.972
- relative viability ([4]; first compound 0.1265 µM): 0.911
- relative viability ([4]; first compound 0.4 µM): 0.939
- relative viability ([4]; first compound 1.265 µM): 0.822
- relative viability ([4]; first compound 4 µM): 0.872
- relative viability ([5]; first compound 0.04 µM): 0.738
- relative viability ([5]; first compound 0.1265 µM): 0.616
- relative viability ([5]; first compound 0.4 µM): 0.883
- relative viability ([5]; first compound 1.265 µM): 0.707
- relative viability ([5]; first compound 4 µM): 0.7
- relative viability ([6]; first compound 0.04 µM): 1.07
- relative viability ([6]; first compound 0.1265 µM): 1.02
- relative viability ([6]; first compound 0.4 µM): 0.456
- relative viability ([6]; first compound 1.265 µM): 0.526
- relative viability ([6]; first compound 4 µM): 0.862
- relative viability ([7]; first compound 0.04 µM): 0.793
- relative viability ([7]; first compound 0.1265 µM): 0.766
- relative viability ([7]; first compound 0.4 µM): 0.67
- relative viability ([7]; first compound 1.265 µM): 0.557
- relative viability ([7]; first compound 4 µM): 0.452
- relative viability ([8]; first compound 0.04 µM): 0.664
- relative viability ([8]; first compound 0.1265 µM): 0.569
- relative viability ([8]; first compound 0.4 µM): 0.61
- relative viability ([8]; first compound 1.265 µM): 0.539
- relative viability ([8]; first compound 4 µM): 0.549
- relative viability ([9]; first compound 0.04 µM): 0.336
- relative viability ([9]; first compound 0.1265 µM): 0.386
- relative viability ([9]; first compound 0.4 µM): 0.28
- relative viability ([9]; first compound 1.265 µM): 0.319
- relative viability ([9]; first compound 4 µM): 0.246
- relative viability ([10]; first compound 0.04 µM): 0.266
- relative viability ([10]; first compound 0.1265 µM): 0.257
- relative viability ([10]; first compound 0.4 µM): 0.208
- relative viability ([10]; first compound 1.265 µM): 0.269
- relative viability ([10]; first compound 4 µM): 0.315
- relative viability ([11]; first compound 0.04 µM): 0.189
- relative viability ([11]; first compound 0.1265 µM): 0.199
- relative viability ([11]; first compound 0.4 µM): 0.176
- relative viability ([11]; first compound 1.265 µM): 0.234
- relative viability ([11]; first compound 4 µM): 0.164
- relative viability ([12]; first compound 0.04 µM): 0.35
- relative viability ([12]; first compound 0.1265 µM): 0.399
- relative viability ([12]; first compound 0.4 µM): 0.45
- relative viability ([12]; first compound 1.265 µM): 0.428
- relative viability ([12]; first compound 4 µM): 0.274
